Experimental data published in US20090022675A1, “ESTERS WITH WARMING PROPERTIES” (priority 2007, published 2009).

Test: Warming properties: rise in temperature on mixing with water (heat of solution)
Format: physicochemical
Details: mixed with water; Hest G-18-O maximum when about 60% by weight is used
Text: When Hest G-18-O is mixed with water at ambient temperature, there is a rise in temperature. The rise in temperature ranges from about 5 degrees C. to about 15 degrees C.; it also ranges from about 8 degrees C. to about 12 degrees C. This rise in temperature is about 2-3 times more than that obtained with the same weight of glycerine (FIG. 1) or propylene glycol. The temperature rise reaches a maximum of about 12 degrees C. when about 60% by weight of Hest G-18-O is used. This compares to a maximum of only about 5 degrees C. for glycerine or propylene glycol.
The maximum amount of heat (though not the greatest rise in temperature) is obtained when the Hest G-18-O is dissolved in a large excess of water. If the Hest G-18-O, glycerine or propylene glycol is not anhydrous, some of its heat of solution will already have been dissipated. Correspondingly, smaller amounts of heat will be produced by further dilution.

Compound	maximum temperature rise
OCC(O)CO [glycerine]	about 5 degrees C.
CC(O)CO (centres unmarked) [propylene glycol]	about 5 degrees C.
